Patent publication US20250313546A1, “NUCLEIC ACID BINDERS” (UNIVERSITY OF STRATHCLYDE, priority 2022, published 2025)
pIC50: −log10 of the molar value. In brackets after ≈: the same amount, converted by molar mass.

Assays:
[1] = system: Fusarium oxysporum (F7098); settings: read-out: MIC99 Fusarium oxysporum
Experimental: (§2) The Minimum Inhibitory Concentration (MIC, at 99% inhibition) of the compounds was determined using the broth microdilution method as recommended by EUCAST (EUCAST Definitive Document E.DEF 9.3.2, Method for the determination of broth dilution minimum inhibitory concentrations of antifungal agents for conidia forming moulds and EUCAST Definitive Document E.DEF 7.3.2 Method for the determination of broth dilution minimum inhibitory concentrations of antifungal agents for yeasts).

[2] = system: Escherichia coli (ATCC 25922); experiment: Antibacterial MIC, broth microdilution (CLSI); assay type: cell-based; settings: Escherichia coli, ATCC25922; read-out: MIC80 E. coli
[3] = system: PolyAU double stranded RNA; experiment: Fluorescence intercalator displacement (FID) assay, SYBR-safe probe; settings: 20 μM compound, 30° C., lower % = stronger binding
Summary of the method: (§1)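 Compound at 20 μM mixed with 3.76 ng/mL polyAU dsRNA or salmon genomic dsDNA and 12500-fold diluted SybrSafe in 1 mM phosphate buffer pH 7.4, then heated to 30 °C and fluorescence read. Reduction is expressed as normalised %, with nucleic acid plus probe as maximum and probe alone as minimum.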

[4] = system: Genomic double stranded DNA (salmon); experiment: as above; settings: 20 μM compound, 30° C., lower % = stronger binding
Summary of the method: as §1

[5] = system: Rhizopus arrhizus (NEQAS12.35321); settings: read-out: MIC99 Rhizopus arrhizus
Experimental: as §2

[6] = system: A. fumigatus A1160 (MFIG001); settings: Aspergillus fumigatus, read-out: MIC99 A. fumigatus A1160
Experimental: as §2

[7] = system: Staphylococcus aureus (ATCC 43300); experiment: Antibacterial MIC, broth microdilution (CLSI); assay type: cell-based; settings: for MIC80: Staphylococcus aureus, ATCC43300, read-out: MIC80 S. aureus; for S. aureus Selectivity Indices, Group: SI, IC50 (μM)/MIC80 (μM), HEK293 cytotoxicity, Alkyl Amidines and NH Pyrroles
[8] = system: Scedosporium prolificans (F2746); settings: Lomentospora prolificans, read-out: MIC99 Scedosporium prolificans
C. neoformans (F10025) = settings: Cryptococcus neoformans, read-out: MIC99 C. neoformans
Experimental: as §2

A. flavus (CBS 128.202) = settings: Aspergillus flavus, CBS128, read-out: MIC99 A. flavus
Experimental: as §2

Candida auris (H.17.157) = settings: Candidozyma auris, read-out: MIC99 Candida auris
Experimental: as §2

C. albicans (ATCC 90028) = settings: Candida albicans, ATCC90028, read-out: MIC99 C. albicans
Experimental: as §2

[9] = system: Enterococcus faecalis (ATCC 51299); experiment: Antibacterial MIC, broth microdilution (CLSI); assay type: cell-based; settings: for MIC80: Enterococcus faecalis, ATCC51299, read-out: MIC80 E. faecalis; for E. faecalis Selectivity Indices, Group / E. faecalis Selectivity Index (SI): SI, IC50 (μM)/MIC80 (μM), HEK293 cytotoxicity; for E. faecalis Selectivity Indices, Group: Alkyl Amidines and NH Pyrroles; for E. faecalis Selectivity Index (SI): numeric value
[10] = system: Candida glabrata (ACPF3309); settings: Nakaseomyces glabratus, read-out: MIC99 Candida glabrata
[11] = system: SARS-CoV-2 (hCoV-19/Australia/VIC01/2020); experiment: SARS-CoV-2 microplaque inhibition assay in Vero-E6 cells; assay type: cell-based; settings: Severe acute respiratory syndrome coronavirus 2, Vero C1008; plaque inhibition, Vero-E6 cells; read-out: IC50 SARS-CoV-2
T. equiperdum = experiment: Resazurin-based (Alamar blue) drug sensitivity assay; settings: Trypanosoma equiperdum, read-out: IC50 T. equiperdum
Experimental: A detailed description of the procedure for evaluating activity against trypanosomes, using an Alamar Blue (resazurin) assay, is described below.
The bloodstream form (BSF) T. b. brucei s427 (see De Koning, H. P. et al., Mol. Biochem. Parasitol. 2000, 106, 181-185), T. evansi AntTat 3/3 (see Dean, S. et al., Proc. Natl. Acad. Sci. USA, 2013, 110, 14741-14746), and T. equiperdum (see Stewart, M. L. et al., Eukaryot. Cell, 2010, 9, 336-343) were cultured in HMI-9 medium (Life Technologies, Paisley, United Kingdom) supplemented with 10% heat inactivated Foetal Bovine Serum (FBS (PAA Laboratories Linz, Austria)), 14 μL/L β-mercaptoethanol (BDH, Dorset, UK), and 3.0 g/L NaHCO3 (Sigma-Aldrich) and adjusted to pH 7.4. These cell lines were maintained at 37° C. in a humidified, 5% CO2 environment.
A resazurin-based (Alamar blue) drug sensitivity assay was used to assess and compare the activity of standard trypanocides in the different cell lines investigated (see Gould, M. K. et al., Anal. Biochem., 2008, 382, 87-93). Briefly, 23 doubling dilutions of the test compound of the invention, starting at 100 μM, and a compound-free control were prepared in 100 μL medium in a 96-well white plate (Greiner Bio-one, Frickenhausen, Germany). The cells were adjusted to 2×10^4 cells/mL for T. b. brucei and T. equiperdum; 4×10^4 cells/mL for T. evansi; and 5×10^5 cells/mL for T. congolense in the appropriate medium. 100 μL of the adjusted cells was then added to the wells containing drug dilutions and incubated for 48 h under respective culture condition. Thereafter, 20 μL of 125 mg/mL resazurin sodium dye was added, and the plate was incubated for a further 24 h.

T. vaginalis = experiment: Trichomonas resorufin assay; assay type: cell-based; settings: for T. vaginalis Selectivity Indices, Group: Alkyl Amidines and NH Pyrroles; for pIC50: Trichomonas vaginalis, read-out: IC50 T. vaginalis
[12] = system: human respiratory syncytial virus (RSV A2); experiment: Viral ToxGlo assay, Hep-2 cells; assay type: cell-based; settings: 72 h
[13] = system: Human rhinovirus (HRV-14); experiment: Viral ToxGlo assay, Hela Ohio cells; assay type: cell-based; settings: M-HeLa, 72 h
T. evansi AntTat 3/3 = experiment: Resazurin-based (Alamar blue) drug sensitivity assay; settings: read-out: IC50 T. evansi
Influenza (H1N1) = experiment: Accelerated Viral Neuraminidase Inhibition Assay (AVINA), A549 cells; assay type: cell-based; settings: Influenza A virus, 72 h
[14] = SI, IC50 (μM)/IC50 (μM), HEK293 cytotoxicity

Row | SMILES | MIC80 [2] [µM] | % Normalised Fluorescence with polyAU RNA [3] [%] | % Normalised Fluorescence with gDNA [4] [%] | MIC99 [5] [µg/mL] | MIC99 [6] [µg/mL] | MIC80 [7] [µM] | MIC99 [8] [µg/mL] | MIC99 (C. neoformans (F10025)) [µg/mL] | MIC99 (Candida auris (H.17.157)) [µg/mL] | MIC99 (C. albicans (ATCC 90028)) [µg/mL] | MIC80 [9] [µM] | MIC99 [10] [µg/mL] | pIC50 [11] | T. vaginalis Selectivity Indices, Group (T. vaginalis; [14]) | pIC50 (T. vaginalis) | inhibition at 20 µM [12] [%] | inhibition at 20 µM [13] [%] | S. aureus Selectivity Indices, Group [7] | E. faecalis Selectivity Indices, Group [9] | E. faecalis Selectivity Index (SI) [9] | other results
1 | CN(C)c1ccc(/C=C/c2ccc(C(=O)Nc3cc(C(=O)Nc4c[nH]c(C(=O)NCCN5CCOCC5)c4)n(C)c3)cn2)cc1 [IIIb3, (E)-6-(4-(dimethylamino)styryl)-N-(1-methyl-5-((5-((2-morpholinoethyl)carbamoyl)-1H-pyrrol-3-yl)carbamoyl)-1H-pyrrol-3-yl)nicotinamide] | > 100 | 39 | 31 | > 50 | 25 to 50 (≈ 40.9 to 81.9 µM) | < 5 | > 50 | > 50 | > 50 | > 50 | > 100 | > 50 | – | – | – | – | – | – | – | – | MIC99 [1]: > 50 µg/mL; MIC99 (A. flavus (CBS 128.202)): > 50 µg/mL
2 | C/N=C(/CCNC(=O)c1cc(NC(=O)c2cc(NC(=O)c3ccc(/C=C/c4nc5ccccc5s4)cc3)cn2C)cn1C)NC [Ia11, 4-(4-((E)-2-(benzo[d]thiazol-2-yl)vinyl)benzamido)-1-methyl-N-(1-methyl-5-(((Z)-3-(methylamino)-3-(methylimino)propyl)carbamoyl)-1H-pyrrol-3-yl)-1H-pyrrole-2-carboxamide] | > 100 | – | – | 5 to 25 (≈ 8.03 to 40.1 µM) | 5 to 25 (≈ 8.03 to 40.1 µM) | 5 to 25 (≈ 3.11 to 15.6 µg/mL) | 5 to 25 (≈ 8.03 to 40.1 µM) | < 5 | > 50 | 5 to 25 (≈ 8.03 to 40.1 µM) | > 100 | < 5 | 4.49 to 5.10 | – | – | – | – | – | – | – | –
3 | CC/N=C(\N)CCNC(=O)c1cc(NC(=O)c2cc(NC(=O)c3ccc(/C=C/c4ccc5nonc5c4)cc3)cn2C)cn1C [Ia12, N—((Z)-3-amino-3-(ethylimino)propyl)-4-(4-(4-((E)-2-(benzo[c][1,2,5]oxadiazol-5-yl)vinyl)benzamido)-1-methyl-1H-pyrrole-2-carboxamido)-1-methyl-1H-pyrrole-2-carboxamide] | > 100 | 2 | 2 | – | > 50 | 5 to 25 (≈ 3.04 to 15.2 µg/mL) | – | 5 to 25 (≈ 8.23 to 41.1 µM) | – | – | < 5 | 5 to 25 (≈ 8.23 to 41.1 µM) | 4.49 to 5.10 | B (Group B: 8 < SI <= 16) | 5.30 to 6.00 | > 50 | 10 to 25 | C (Group C: 5 < SI <= 10) | D (D: SI > 10) | 23 | pIC50 (T. equiperdum): 6.00 to 7.00; pIC50 (T. evansi AntTat 3/3): 6.00 to 7.00; inhibition at 20 µM (Influenza (H1N1)): > 50%
4 | CC(C)/N=C(\N)CCNC(=O)c1cc(NC(=O)c2cc(NC(=O)c3ccc(/C=C/c4ccc5nonc5c4)cc3)cn2C)cn1C [Ia13, N—((Z)-3-amino-3-(isopropylimino)propyl)-4-(4-(4-((E)-2-(benzo[c][1,2,5]oxadiazol-5-yl)vinyl)benzamido)-1-methyl-1H-pyrrole-2-carboxamido)-1-methyl-1H-pyrrole-2-carboxamide] | > 100 | 3 | 2 | – | > 50 | 5 to 25 (≈ 3.11 to 15.5 µg/mL) | – | 5 to 25 (≈ 8.04 to 40.2 µM) | – | – | < 5 | 25 to 50 (≈ 40.2 to 80.4 µM) | 4.49 to 5.10 | C (Group C: 16 < SI <= 32) | 5.30 to 6.00 | > 50 | 25 to 50 | C (Group C: 5 < SI <= 10) | D (D: SI > 10) | 12 | T. vaginalis Selectivity Index (SI) (T. vaginalis; SI, IC50 (μM)/IC50 (μM), HEK293 cytotoxicity, numeric value): 17; inhibition at 20 µM (Influenza (H1N1)): > 50%
